Reference: patent publication US7763596B2, “Selective glucocorticoid receptor agonists” (The University of Manchester, priority 2000, dated 2010)

Tests used:
[1] = molecular target: T1, endogenous GR (Homo sapiens, UniProt P04150); experiment: Transrepression assay using endogenous GR in the A549 lung epithelial cell line (TNF, NRE luciferase); format: cell-based; conditions: compound G at 1, 10, 100 and 500 nM
T1 construct: This cell line contains functional endogenous GR; endogenous in cells; host or cells: A549
T1 sequence (P04150 1-777): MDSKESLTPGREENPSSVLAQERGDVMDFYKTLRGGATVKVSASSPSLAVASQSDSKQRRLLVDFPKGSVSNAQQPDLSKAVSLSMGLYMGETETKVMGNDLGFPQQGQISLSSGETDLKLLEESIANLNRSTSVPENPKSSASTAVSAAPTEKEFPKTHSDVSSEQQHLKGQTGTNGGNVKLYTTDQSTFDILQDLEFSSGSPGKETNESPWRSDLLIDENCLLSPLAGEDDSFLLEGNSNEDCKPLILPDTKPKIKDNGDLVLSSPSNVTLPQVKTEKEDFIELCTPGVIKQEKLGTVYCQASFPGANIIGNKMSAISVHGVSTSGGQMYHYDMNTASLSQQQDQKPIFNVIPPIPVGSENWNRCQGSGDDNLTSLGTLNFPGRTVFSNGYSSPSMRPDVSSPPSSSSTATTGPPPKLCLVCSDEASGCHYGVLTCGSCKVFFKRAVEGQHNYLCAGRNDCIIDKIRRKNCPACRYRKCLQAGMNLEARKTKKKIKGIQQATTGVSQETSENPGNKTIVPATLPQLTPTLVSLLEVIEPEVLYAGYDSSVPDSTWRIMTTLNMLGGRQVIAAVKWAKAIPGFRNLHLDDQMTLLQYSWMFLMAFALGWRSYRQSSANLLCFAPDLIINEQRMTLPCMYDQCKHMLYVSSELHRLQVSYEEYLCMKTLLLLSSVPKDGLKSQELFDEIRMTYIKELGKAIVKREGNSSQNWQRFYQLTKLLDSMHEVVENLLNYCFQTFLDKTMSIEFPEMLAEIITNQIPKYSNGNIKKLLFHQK
Description: (§1) The A549 cell line (ECACC:86012804) is derived from the human lung epithelial cells from a carcinoma. This cell line contains functional endogenous GR and is stimulated by Tumour Necrosis Factor (TNF) to produce IL-8.
In this assay TNF was used to stimulate NFkB activity in a cell line that expressed endogenous GR. The ability of NFkB to activate an NRE “driving” a luciferase reporter gene could then be repressed by GR in a ligand dependent manner and, therefore, used to measure transrepression.
COS7 cells were transfected with 3 μg NRE-Luc per 10 cm tissue culture dish. The cells were plated out in to 24 well plates after transfection and left for 18 hours to recover before the steroids of FIGS. 1 and 2 were added. Next TNF was added to the samples after 3 hours incubation with the steroids and after another 15 hours the cells were lysed and a luciferase assay was performed.

[2] = tested on: IL-8; experiment: Repression of endogenous IL-8 in A549s; format: cell-based, human; conditions: A549 cells; compound G at 100 nM, p=0.0076
Description: as §1
In this assay TNF was used to stimulate NFkB activity in a cell line that expressed endogenous GR. The ability of NFkB to induce IL-8 gene transcription could then be repressed by GR in a ligand dependent manner and, therefore, used to measure transrepression.
COS7 cells were transfected with 3 μg NRE-Luc per 10 cm tissue culture dish. The cells were plated out in to 24 well plates after transfection and left for 18 hours to recover before the steroids of FIGS. 1 and 2A were added. After incubation for 3 hours with the steroids, TNF was added to the samples and after another 15 hours an IL-8 assay (R&D systems) was performed on the cell supernatants according to the manufacturers instructions. Briefly, triplicates of 100 μl of a 1:2 dilution of cell supernatant and 100 μl of a known dilution series of IL-8 were added to the wells of a microtitre plate coated with a monoclonal IL-8 antibody, the samples were incubated with a polyclonal biotinylated IL-8 antibody for 1 hour at room temperature and washed. Streptavidin horse radish peroxidase solution was then added to all wells and incubated for 30 mins before being washed. Tetramethyl benzidine (TMB; a chromagen) was added to all the wells and incubated in the dark for 10 mins, the reaction was stopped by the addition of H2SO4 and the absorbance of each well was read on a spectrophotometer using 450 nm as the primary wavelength. Regression analysis was performed on the standard data and the unknowns were expressed as pg/ml of IL-8 in comparison to the standards.

[3] = molecular target: T2, glucocorticoid receptor (Homo sapiens, UniProt P04150); experiment: Transrepression assay using artificially expressed glucocorticoid receptor and P65 in the COS 7 cell line (NRE luciferase); format: cell-based; parameters: expressed in transfected cells; host or cells: COS 7 (African green monkey kidney, deficient in endogenous GR); conditions: 1, 10 and 100 nM
T2 sequence (P04150 1-777): T1 sequence (P04150 1-777)
Method: All transfections were performed using lipofectamine plus (Gibco BRL), according to the manufacturers' instructions, as previously described^1. Briefly, all cells were seeded at 5×10^5 per 10 cm tissue culture plate 18 hours before transfection, the next day the relevant plasmids were mixed with serum free medium and “Plus” reagent (Gibco BRL) and incubated for 15 mins, lipofectamine reagent was added and the mix was incubated for a further 15 mins, this mix was added to the cells on serum free medium in the 10 cm tissue culture plates and left for 3 hours, the cells were then trypsinised and divided into 24 well plates, the cells were left to recover overnight and were treated with steroid for 16 hours before harvest. All experiments were performed from one transfection in triplicate and on separate occasions with similar results.
The firefly luciferase gene catalyses the production of light from the substrate luciferin. When plasmid constructs containing this gene are transfected into cell lines the activity of the gene can be assessed by the intensity of the luminesence. The luciferase assay yields luminescence through an ATP-dependent oxidation of luciferin the amount of light produced can be measured by a luminometer and is a measure of gene activity (Davis, 1996). Light intensity was measured in a Luminometer (LB 9501, Berthold). The light intensity should be proportional to luciferase concentration in the range of 10^−16M (10 μg/L) to 10^−8M (1 mg/L). To measure the luminescence of the treated cells 150 μl of 1× reporter lysis buffer (RLB: 25 mM Tris phosphate pH7.8, 10 mM MgCl2, 15% Glycerol, 1% Triton, 1 mM EDTA) was added to the 24 well plates to lyse the cells and incubated at room temperature for 30 mins whilst being shaken. Then 100 μl of the room temperature cell extract were mixed with 100 μl of room temperature Luciferase Assay Reagent (LAR: 1 mM ATP, 0.3 mM D-Luciferin, 66% RLB). This reaction was mixed in a luminometer (LB 9501, Berthold) and the light produced was measured for a period of 5 seconds.
To perform this assay the GR and p65 were artificially expressed in a cell line lacking GR and deficient in endogenous P65. The ability of P65 to activate an NFkB response element (NRE) “driving” a luciferase reporter gene could then be repressed by GR in a ligand dependent manner and, therefore, used to measure transrepression.
COS7 cells were transfected with 1 μg pcDNA3-GR and 3 μg NRE-Luc and 200 ng p65 per 10 cm tissue culture dish. The cells were plated out in to 24 well plates after transfection and left for 18 hours to recover before the steroids of FIGS. 1 and 2A were added. After another 18 hour incubation the cells were lysed and a luciferase assay was performed.

[4] = molecular target: T3, GFP tagged GR (Homo sapiens, UniProt P04150); experiment: Nuclear translocation using GFP tagged GR and fluorescent microscopy; format: cell-based; conditions: COS 7 cells, 100 nM, 3 hours
T3 construct: expressed in transfected cells; host or cells: COS 7
T3 sequence (P04150 1-777): T1 sequence (P04150 1-777)
Description: The un-liganded GR is present in the cytoplasm of cells in association with heat shock proteins (HSPs). The binding of an agonist ligand to the GR causes dissociation from the HSPs and translocation to the nucleus. A type I antagonist ligand can bind to the GR but cannot translocate to the nucleus. A type II antagonist ligand can bind to the GR, translocate to the nucleus and bind to DNA but cannot activate gene transcription. Therefore, the ability of a putative ligand to translocate the GR helps to determine its status as an agonist or antagonist. COS 7 cells were transfected with 5 μg of a green fluorescent protein (GFP) tagged GR expression vector. After transfection, these cells were split into 6 well plates with sterile microscope cover slips placed at the bottom of each well. The cells were allowed to recover for 18 hours and then the medium was removed, the cells were washed three times with sterile phosphate buffered saline (PBS) and new medium was added containing charcoal stripped FCS in place of normal FCS. The cells were incubated for 18 hours and then the steroids of FIGS. 1 and 2A were added to make a final concentration of 100 nM. The cells were incubated for a further 3 hours and then the medium was aspirated and the cells were fixed to the glass coverslips by adding ice cold methanol and incubating at −20° C. for 30 mins. The coverslips with the transfected cells fixed to them were mounted on slides and the cellular localisation of the GFP tagged GR was analysed by fluorescent microscopy using an Axioplan 2 microscope (Zeiss, Oberkochen, Germany) and KS300 v3.0 analysis software (Zeiss).

[5] = tested on: tyrosine amino transferase (TAT); experiment: Quantitation of tyrosine amino transferase (TAT) in the livers of air pouch mice; format: in vivo; conditions: 3 μg i.p., FIG. 22
Method: (§2) At time 0, mice received either 0.5 ml of zymosan (1 mg) (group A, B, C) injected locally into the air-pouch. Group D and E were left untreated at this time-point. At 4 h post-zymosan the animals were placed in CO2. Air-pouches were then washed with 2 ml of PBS containing 3 mM EDTA, and livers were recovered and snap frozen for later analysis.
Quantitation of Tyrosine Amino Transferase (TAT) Protein in the Livers: In this method a colourimetric approach is used to quantitate TAT activity. The TAT enzyme catalyses the following reaction: L-tyrosine+2-oxoglutarate⇄4-hydroxyphenylpyruvate (pHPP)+L-glutamate
This reaction also requires pyridoxal phosphate (PLP) as a co-factor. Strong alkali conditions can then be used to convert pHPP to p-hydroxybenzaldehyde (pHBA) and oxalate. The amount of pHBA can then be assessed by measuring its absorbance at 331 nm (extinction coefficient 19,900 M^−1cm^−1) this figure is then assumed to be directly proportional to TAT activity. Livers were homogenized and the cells were stored on ice. […]
For each reaction a control reaction was set up without the ketoglutarate. […] The samples were incubated at room temperature for a further 30 mins and then the absorbance of each sample was assessed at 331 nm on a spectrophotometer (Ultrospec III, Pharmacia).

[6] = tested on: zymosan induced neutrophil migration; experiment: Air pouch model of inflammation, zymosan induced neutrophil migration; format: in vivo, mice
Method: Male outbred Swiss albino mice (18-20 g body weight) were purchased from Bantin and Kingman (T.O. strain; Hull, Humberside) and maintained on a standard chow pellet diet with tap water ad libitum and a 12:00 h light/dark cycle. All animals were housed for 3 days prior to experimentation to allow body weight to reach 20-22 g. On the day of experiment mice ranged from 24-26 g.
Air-pouches were formed on the back of mice by air injection (2.5 ml s.c.) on day 0 and day 3 (Perretti and Flower, 1993).
Zymosan A was allowed to defrost at room temperature for 30 min prior to being added to sterile PBS at a concentration of 2 mg/ml forming a homogenous suspension.
as §2
The number of migrated leukocytes (≧90% polymorphonuclear leukocytes, PMN) was determined in the lavage fluid from each air-pouch, by taking an aliquot (100 μl) of the lavage fluid and diluting 1:10 in Turk's solution (0.01% crystal violet in 3% acetic acid). The samples were then vortexed and 10 μl of the stained cell solution were placed in a Neubauer haematocymometer and neutrophils numbers counted using a light microscope (Olympus B061).
Neutrophil numbers were compared between groups using ANOVA plus the Bonferroni test. TAT levels were compared using a t-test.

repression of TNF activation of A549 cells (NRE reporter gene) [1]	nuclear translocation of the GFP tagged glucocorticoid receptor [4]	liver TAT level compared with vehicle control groups [5]	Compound	repression of IL-8 production after TNF activation [2]	repression of P65 stimulation of an NFkB response element compared with dexamethasone [3]	Neutrophils (10^6 per mouse) ([6]; 3 μg i.p. at -1 h, Zymosan 1 mg into air-pouch, 4 h time-point, mean ± S.E. of 8 mice)	reduction of neutrophil accumulation ([6]; 3 μg i.p., zymosan air pouch, 4 h) [%]
exhibited transrepression	caused nuclear localisation		CCCNC(=O)OCC(=O)C1(O)C(C)CC2C3CCC4=CC(=O)C=CC4(C)C3(F)C(O)CC21C (stereo not shown) [Compound H]	exhibited transrepression	less potent than dexamethasone but produced the same maximal response at 100 nM		
		further elevation of TAT	C[C@@H]1C[C@H]2[C@@H]3CCC4=CC(=O)C=C[C@]4(C)[C@@]3(F)[C@@H](O)C[C@]2(C)[C@@]1(O)C(=O)CO [Dexamethasone, reference compound]			6.23 ± 0.44 * 10^6 per mouse	~30
